The values below come from patent publication US5733719A, “Method of making an assay compound” (priority 1995, dated 1998).

Data set [1] relates to acute lympholytic Ficoll prepared lymphocytes. The data set is described as follows: Amino peptidase activity in acute lymphocytic leukemia lymphocytes. It is filed as cell-based. To be noted: FIG. 4B, log fluorescence at 525 nm v. time. The text has this:
The cell's ability to fight off an invader lies within its genetics and therefore cell type. The "readiness" however of any genetically capable group of cells to defend is different. A measure of this "readiness" is manifest in the available proteolytic enzymes contained within vacuoles or on the surface of the cell. The assay compound hydrolysis rate increases with increased mass of enzymes giving a picture of immune competence both in number of cells and activity level. […] Images were generated using Universal Imaging.

A further data set deals with Lymphs. Kind of data set: Peptidases to distinguish leukemia from non-leukemia, lymphocytes. It is filed as cell-based, human. Details: unit not given here.
The next data set relates to Grans. The data set is described as follows: Peptidases to distinguish leukemia from non-leukemia, granulocytes. Details: unit not given here. It is filed as cell-based, human.
In a further data set the test system is enzyme. The data set is described as follows: Effect of dithioerythritol (DTE) on substrate sensitivity. The following applies: dithioerythritol (DTE) at 1 mM. The text has this:
Modulators are components used to […] the sensitivity of the enzyme for the leaving group. The modulators speed up or slow down the activity of an enzyme by changing the active site. […] Preferred modulators for particular enzymes are included in Table 1.

Another data set relates to aminopeptidase. The data set is described as follows: Inhibition of aminopeptidase reaction with (H-L-Asp)2 rhodamine 110. It is filed as biochemical. The following applies: approximately 10 mM. The text has this:
The chemical nature of the buffer is important to the reactivity of the assay compound with the cellular enzymes. […] In addition, the assay compound hydrolysis by the enzyme occurs at an increased rate of reaction.

In another data set the test system is cells. To be noted: even when buffered.
Data set [2] in a line: Effect of sodium chloride on dipeptide reagent. The following applies: 7mM, pH range of 6.5 to 8.7. The text has this:
Inhibitors and poisons (or toxins) are components that can be added to reduce the activity of non-targeted enzymes that provide competing reactions for the leaving group. Inhibitors are usually very selective for a particular enzyme. For example, EDTA only works with enzymes requiring Ca^+2, Mg^+2 and some other metals. […] Preferred inhibitors for particular enzymes are included in Table 1.

A further data set is described as follows: Native free fluorescence. Type of data set: physicochemical. The text has this:
Assays for peptidases using assay compounds generate fluorescence generally in the range of 10^-5 to 10^-6 Molar free rhodamine 110. Therefore, it is preferred that the free rhodamine 110 and blocked peptide impurities in the assay reagent should be removed to a concentration of less than the fluorescence generated by about 1×10^-6 M and more preferably less than the fluorescence generated by about 10^-7 Molar free indicator group. This amounts to a 100,000 photon count using rhodamine 110 as a standard at 10^-7 -10^-8 M, preferably 5×10^-8 M in a 1 cm path length cuvette when measured over 10 min. on a photon counting spectrofluorometer manufactured by the SLM Company of Chicago, Ill. This corresponds to a use level on the flow cytometer where no cellular false positive can be detected for a 10 minute period at the highest sensitivity setting. […] The presence of impurities causes a decrease in the storage stability of the compound, resulting in an increased autohydrolysis which leads to increased background fluorescence. A compound should be free of impurities such that when the compound (or reagent containing the compound) is stored at 4° C. for 30 days, preferably 90 days, more preferably 180 days, most preferably one year, the background fluorescence increases less than 10%, preferably less than 5%, most preferably less than 1% over these time periods, respectively. […]

The structures appear in SMILES notation. Where a name gives a salt, the structure may show the parent alone.

Procedure for cells: Viability is confirmed with Trypan Blue or PI-FDA over a time period of 10 seconds to 30 minutes. If the viability of the cell sample at between one and three million cells/mL decreases by10% then the salt of the compound is rejected and another salt of the assay compound is synthesized.

For `CC(C)C[C@H](N)C(=O)Nc1ccc2c(c1)Oc1cc(NC(=O)[C@@H](N)CC(C)C)ccc1C21OC(=O)c2ccccc21` [LEU, (Leu)2 Rho 110], the enzymatic activity result in data set [1] is “lost their enzymatic activity”.

As to `O=C1OC2(c3ccc(NC(=O)[C@@H]4CCCN4)cc3Oc3cc(NC(=O)[C@@H]4CCCN4)ccc32)c2ccccc21` [PRO, (H--L--Pro)2 Rho 110-2TFA], the enzyme activity in the data set with Lymphs (J4 11/21/91 acute leuk.) came out at 0.47; with Lymphs (J4 12/2/91 AL), 0.29; in the data set on Lymphs (J4 12/3/91 acute leuk.), 0.24; with Lymphs (J5 11/27/91 AML), 0.89; in the data set with Lymphs (J19 11/27/91 CLL) it was 0.44; in the data set with Lymphs (J22 12/2/91 AML), 0.40. Further, the enzyme activity with Lymphs (J22 12/9/91 AML) was 0.44; in the data set on Lymphs (N99° normal), 1.02; with Lymphs (N191 normal), 0.69; in the data set on Lymphs (N192 normal), 1.14; in the data set with Lymphs (N193 normal), 0.95; in the data set on Lymphs (N194 normal), 0.86. Also, the enzyme activity in the data set with Lymphs (N195 normal) was determined as 0.88; with Lymphs (N197 normal) it was 0.57; with Lymphs (N200 normal), 0.74; in the data set with Lymphs (N201 normal), 1.10; with Lymphs (N202 normal), 0.89; with Lymphs (N206 normal), 1.28. For the same molecule, the enzyme activity in the data set with Lymphs (P68 tachycardia) worked out at 0.70; in the data set with Lymphs (P69 pancreatic CA), 0.66; in the data set on Lymphs (P70 cirrhosis/hemobilia) it was 0.56; with Lymphs (P71 ac. pyelonephritis), 0.52; with Grans (J4 11/21/91 acute leuk.) it was 5.77; in the data set on Grans (J4 12/2/91 AL), 3.59. In addition, the enzyme activity with Grans (J4 12/3/91 acute leuk.) is 3.68; in the data set with Grans (J5 11/27/91 AML), 5.92; with Grans (J19 11/27/91 CLL), 5.50; in the data set on Grans (J22 12/2/91 AML) it was 4.03; in the data set on Grans (J22 12/9/91 AML) it was 3.53; in the data set on Grans (N99° normal), 4.85. Also, the enzyme activity stood at 4.34 in the data set with Grans (N191 normal); 4.34 in the data set on Grans (N192 normal); 4.75 in the data set on Grans (N193 normal); 3.75 in the data set on Grans (N194 normal); 4.70 in the data set with Grans (N195 normal); 3.76 in the data set on Grans (N197 normal). Besides, the enzyme activity in the data set on Grans (N200 normal) turned out to be 4.04; with Grans (N201 normal), 6.42; in the data set on Grans (N202 normal) it was 4.96; in the data set with Grans (N206 normal), 6.13; in the data set with Grans (P68 tachycardia) it was 7.19; in the data set on Grans (P69 pancreatic CA), 5.70. In addition, the enzyme activity was found to be 0.66 in the data set on Grans (P70 cirrhosis/hemobilia) and 6.33 in the data set with Grans (P71 ac. pyelonephritis). Moreover, in the data set with enzyme, the “effect of DTE on sensitivity” value is listed as “decreases the sensitivity”.

For `[Ca+2].[Cl-].[Cl-]` [calcium chloride], in the data set on aminopeptidase, the “inhibition of enzyme reaction with (H-L-Asp)2 rhodamine 110” value is given as “inhibitory”.

For `Br.Cc1ncc(C)n2nc(CCc3nc(-c4ccccc4)cn3C)nc12` [hydrogen bromide (HBr), hydrogen bromide], in the data set with cells, the effect on cells entry is “kills cells”.

As for `[Cl-].[Na+]` [sodium chloride], in data set [2], the “inhibitory effect on dipeptide reagent” value is reported as “slightly inhibitory effect”.

As for `CC(C)C[C@H](N)C(=O)NCC(=O)Nc1ccc2c(c1)Oc1cc(NC(=O)CNC(=O)[C@@H](N)CC(C)C)ccc1C21OC(=O)c2ccccc21` [tartrate salt of (LeuGly)2 rhodamine 110, (H--L--Leu--Gly)2 Rho 110-2Tartrate], the native free fluorescence in the data set “Native free fluorescence” was 61,000 photons.
